According to patent US20110098296A1, “Thiazole And Oxazole Kinase Inhibitors” (priority 2007, published 2011):

Key:
ErbB2 = target: T1, ErbB2 (Homo sapiens, UniProt P04626); assay: ErbB-2 substrate phosphorylation assay (HTRF); assay type: biochemical; conditions: Method (A): Enzyme Mix incubated with compound at 20° C. for 1 hr, reaction started by adding Substrate Mix
T1 construct: made in house; host or cells: baculovirus expression system
How it was run: (§1)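 Baculovirus-expressed kinase (0.8 nM EGFR or 10 nM ErbB2 in enzyme mix) with Peptide C 0.8 μM and ATP 20 μM (substrate-mix levels), MOPS pH 7.5, MnCl2; 90 min, 20 °C, HTRF anti-phosphotyrosine. Method A adds 1 h enzyme–compound preincubation; B none. pIC50, final compound 0.00027–47.6 μM.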

EGFR = target: T2, EGFR (Homo sapiens, UniProt P00533); assay: EGFR substrate phosphorylation assay (HTRF); assay type: biochemical; conditions: Method (A): Enzyme Mix incubated with compound at 20° C. for 1 hr, reaction started by adding Substrate Mix
T2 construct: made in house; host or cells: baculovirus expression system
T2 sequence (P00533 25-1210): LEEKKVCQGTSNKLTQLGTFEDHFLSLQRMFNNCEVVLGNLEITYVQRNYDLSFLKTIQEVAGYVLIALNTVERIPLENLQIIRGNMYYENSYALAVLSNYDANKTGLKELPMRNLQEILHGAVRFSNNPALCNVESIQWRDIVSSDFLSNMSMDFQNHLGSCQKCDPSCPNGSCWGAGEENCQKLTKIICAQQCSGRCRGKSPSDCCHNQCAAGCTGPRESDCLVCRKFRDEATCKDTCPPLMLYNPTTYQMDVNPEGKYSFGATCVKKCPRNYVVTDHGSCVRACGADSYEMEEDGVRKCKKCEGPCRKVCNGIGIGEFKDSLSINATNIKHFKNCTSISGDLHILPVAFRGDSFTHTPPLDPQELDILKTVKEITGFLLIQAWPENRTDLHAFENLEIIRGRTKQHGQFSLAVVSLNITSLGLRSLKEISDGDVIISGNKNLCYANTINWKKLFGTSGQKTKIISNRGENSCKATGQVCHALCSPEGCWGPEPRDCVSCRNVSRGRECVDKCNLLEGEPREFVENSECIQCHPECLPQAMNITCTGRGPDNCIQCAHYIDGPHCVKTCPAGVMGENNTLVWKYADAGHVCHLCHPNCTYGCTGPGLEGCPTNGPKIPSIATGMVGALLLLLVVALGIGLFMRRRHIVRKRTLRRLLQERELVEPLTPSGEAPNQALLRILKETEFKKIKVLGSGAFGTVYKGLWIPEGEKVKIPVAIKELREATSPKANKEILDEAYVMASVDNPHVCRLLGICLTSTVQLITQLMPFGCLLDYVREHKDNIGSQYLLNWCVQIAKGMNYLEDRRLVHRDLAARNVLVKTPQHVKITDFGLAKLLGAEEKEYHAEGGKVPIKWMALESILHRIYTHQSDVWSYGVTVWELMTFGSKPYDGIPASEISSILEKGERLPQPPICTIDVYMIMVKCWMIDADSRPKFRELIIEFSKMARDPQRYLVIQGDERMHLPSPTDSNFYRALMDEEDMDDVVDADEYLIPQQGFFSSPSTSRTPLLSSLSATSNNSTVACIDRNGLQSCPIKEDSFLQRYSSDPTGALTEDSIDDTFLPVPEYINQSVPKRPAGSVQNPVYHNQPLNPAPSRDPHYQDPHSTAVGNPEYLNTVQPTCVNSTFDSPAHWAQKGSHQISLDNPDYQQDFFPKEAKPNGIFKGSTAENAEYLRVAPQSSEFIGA
How it was run: as §1

T1 sequence (P04626 23-1255): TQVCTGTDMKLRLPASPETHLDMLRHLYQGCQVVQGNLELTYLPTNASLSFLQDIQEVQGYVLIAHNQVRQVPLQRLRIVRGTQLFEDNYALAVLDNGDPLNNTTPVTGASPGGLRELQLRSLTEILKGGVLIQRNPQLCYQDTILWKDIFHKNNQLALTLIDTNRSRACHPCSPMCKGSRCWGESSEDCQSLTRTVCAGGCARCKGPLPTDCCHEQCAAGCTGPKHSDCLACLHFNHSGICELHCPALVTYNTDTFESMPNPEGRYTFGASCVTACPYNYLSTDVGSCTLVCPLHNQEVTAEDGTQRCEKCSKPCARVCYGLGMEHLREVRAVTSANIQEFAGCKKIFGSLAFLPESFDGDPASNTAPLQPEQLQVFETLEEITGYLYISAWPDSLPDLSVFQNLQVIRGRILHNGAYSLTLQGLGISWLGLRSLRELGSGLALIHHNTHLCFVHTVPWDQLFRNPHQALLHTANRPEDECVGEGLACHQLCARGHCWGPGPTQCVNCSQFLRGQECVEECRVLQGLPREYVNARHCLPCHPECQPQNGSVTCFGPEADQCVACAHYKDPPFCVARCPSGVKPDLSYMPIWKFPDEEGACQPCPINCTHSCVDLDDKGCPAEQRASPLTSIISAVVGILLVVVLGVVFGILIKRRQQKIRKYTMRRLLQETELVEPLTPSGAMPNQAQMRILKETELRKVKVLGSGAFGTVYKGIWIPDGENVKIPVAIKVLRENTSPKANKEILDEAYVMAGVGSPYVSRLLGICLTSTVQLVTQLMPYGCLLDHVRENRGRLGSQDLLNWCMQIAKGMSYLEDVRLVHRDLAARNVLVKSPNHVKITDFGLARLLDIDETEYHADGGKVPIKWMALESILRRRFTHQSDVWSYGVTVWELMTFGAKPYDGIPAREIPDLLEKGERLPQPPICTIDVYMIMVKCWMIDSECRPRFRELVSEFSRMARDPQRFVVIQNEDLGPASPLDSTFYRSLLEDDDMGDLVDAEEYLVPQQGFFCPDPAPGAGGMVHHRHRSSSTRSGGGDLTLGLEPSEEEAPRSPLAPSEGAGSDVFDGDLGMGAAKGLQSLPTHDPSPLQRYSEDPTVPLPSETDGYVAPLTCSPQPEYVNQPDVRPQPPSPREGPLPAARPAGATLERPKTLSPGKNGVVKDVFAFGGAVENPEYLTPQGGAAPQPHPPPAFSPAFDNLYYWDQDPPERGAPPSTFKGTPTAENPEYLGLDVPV

Row | IC50 (ErbB2) | IC50 (EGFR) | SMILES
1 | < 100 nM | < 100 nM | COc1ccc(Nc2nccc(-c3sc(N)nc3-c3cccc(NC(=O)c4c(F)cccc4F)c3)n2)cc1N1CCNCC1 [Example 18, N-[3-(2-Amino-5-{2-[(4-methoxy-3-piperaziN-1-ylphenyl)amino]pyrimidiN-4-yl}-1,3-thiazol-4-yl)phenyl]-2,6-difluorobenzamide]
2 | < 100 nM | < 100 nM | Nc1nc(-c2cccc(C(=O)Nc3c(F)cccc3F)c2)c(-c2ccnc(Nc3cccc(CN4CCCC4)c3)n2)s1 [Example 77, 3-[2-Amino-5-(2-{[3-(1-pyrrolidinylmethyl)phenyl]amino}-4-pyrimidinyl)-1,3-thiazol-4-yl]-N-(2,6-difluorophenyl)benzamide]
3 | < 100 nM | < 100 nM | Cc1nc(-c2cccc(NC(=O)c3c(F)cccc3F)c2)c(-c2ccnc(Nc3ccc(OCCN(C)C)c(Cl)c3)n2)s1 [Example 103, N-[3-(5-{2-[(3-Chloro-4-{[2-(dimethylamino)ethyl]oxy}phenyl)amino]-4-pyrimidinyl}-2-methyl-1,3-thiazol-4-yl)phenyl]-2,6-difluorobenzamide]
4 | < 100 nM | < 100 nM | CCc1nc(-c2cccc(NC(=O)c3c(F)cccc3F)c2)c(-c2ccnc(Nc3cccc(CN4CCCC4)c3)n2)s1 [Example 115, N-{3-[2-Ethyl-5-(2-{[3-(1-pyrrolidinylmethyl)phenyl]amino}-4-pyrimidinyl)-1,3-thiazol-4-yl]phenyl}-2,6-difluorobenzamide]

Continued, compound first:

Row | SMILES | IC50 (ErbB2) | IC50 (EGFR)
5 | COc1cc(Nc2nccc(-c3sc(N)nc3-c3cccc(NC(=O)c4c(F)cccc4F)c3)n2)cc(OC)c1OC [Example 16, N-[3-(2-Amino-5-{2-[(3,4,5-trimethoxyphenyl)amino]pyrimidiN-4-yl}-1,3-thiazol-4-yl)phenyl]-2,6-difluorobenzamide] | < 100 nM | < 100 nM
6 | Cc1cc(-c2sc(N)nc2-c2cccc(NC(=O)c3c(F)cccc3F)c2)nc(Nc2cccc(F)c2)n1 [Example 48, N-[3-(2-Amino-5-{2-[(3-fluorophenyl)amino]-6-methyl-4-pyrimidinyl}-1,3-thiazol-4-yl)phenyl]-2,6-difluorobenzamide] | > 1000 nM | 100 to 1000 nM
7 | CCNc1nc(-c2cccc(NC(=O)C3CC3)c2)c(-c2ccnc(Nc3ccc(OCCN4CCCC4)c(Cl)c3)n2)s1 [Example 63, N-{3-[5-{2-[(3-Chloro-4-{[2-(1-pyrrolidinyl)ethyl]oxy}phenyl)amino]-4-pyrimidinyl}-2-(ethylamino)-1,3-thiazol-4-yl]phenyl}cyclopropanecarboxamide] | < 100 nM | < 100 nM
8 | Cc1nc(-c2cccc(NC(=O)c3c(F)cccc3F)c2)c(-c2ccnc(Nc3ccc(OC4CCN(C(=O)OCc5ccccc5)CC4)c(F)c3)n2)s1 [Example 106] | < 100 nM | < 100 nM
9 | Cc1nc(-c2cccc(NC(=O)c3cc(F)ccc3F)c2)c(-c2ccnc(Nc3ccc(OCCN(C)C)c(Cl)c3)n2)o1 [Example 142] | < 100 nM | < 100 nM
